From patent US20100256148A1, “USE OF CFMS INHIBITOR FOR TREATING OR PREVENTING BONE CANCER AND THE BONE LOSS AND BONE PAIN ASSOCIATED WITH BONE CANCER” (priority 2007, published 2010)
Counter-ions that a name gives are not always drawn. Like-named read-outs stand apart in the source and are kept apart here. Marks after values point to notes of the source that are not given here.

Experiments:
H460, MDA-MB-231, A375 = assay: Growth factor-independent proliferation of adenocarcinoma cells; format: cell-based, human
[1] = system: MRMT-1 rat mammary gland carcinoma cells; assay: Rat MRMT-1 bone metastasis model (osteolysis, osteoclasts, tumor); format: in vivo; design: key to Microradiograph score (five point visual score): 0 = no destruction to 5 = bi-cortical bone loss/fracture; key to Trabecular bone vol score (three point visual score): 0 = none, 1 = 1-10%, 2 = >10-<40% (normal), 3 = >40% area; key to Tumor vol score (three point visual score): 0 = none, 1 = small, 2 = moderate, 3 = large tumor; conditions: for Microradiograph score (five point visual score) / Osteoclast Counts (TRAP positive cells, mean of three 200x fields) / Tumor vol score (three point visual score) / Trabecular bone vol score (three point visual score): Day 3 to Day 17, mean ± SEM
Experimental: Rat MRMT-1 bone metastasis model. Inoculation of rat mammary MRMT-1 adenocarcinoma cells into tibiae has been described as a bone metastasis model (Medhurst S J, et al., Pain 2002; 96:129-40. An adaptation of the model (Roudier M P, et al., Clin Exp Metastasis 2006, 23:167-75) was performed by MDS Pharma Services (Bothel, Wash.). Female Sprague-Dawley rats (Harlan Sprague Dawley, Inc., Indianapolis, Ind.) approximately 125-150 grams were acclimated one week. The animals were anesthetized with ketamine/xylazine, and the right leg area was shaved and scrubbed with chlorhexadine and 70% ethanol (SOP-SUR026). A 1-cm rostral-caudal incision was made in the skin over the top half of the tibia. Blunt-dissection exposed the proximal tibia, and a Hamilton syringe guided by a 23-gauge needle was used to inject 3 μl of saline (sham) or saline containing 3×10^4 MRMT-1 cells into the medullary cavity of the right proximal tibia of each rat. The injection site was closed with bone wax. The wound was closed with surgical staples. […] To serve as a control, a fourth group was dosed QOD sc with 0.03 mg/kg zoledronate in saline. Eight rats were dosed per group. Rats were sacrificed on Day 17. Right tibiae were excised, together with surrounding tumor tissue, and microradiographs prepared using an MX-20 x-ray system (Faxitron X-ray Corporation, Wheeling, Ill.). Microradiographs were scored for tumor-induced osteolysis as follows: 0, no signs of destruction; 1, one to three small radiolucent lesions; 2, three to six lesions and loss of medullary bone; 3, loss of medullary bone and erosion of cortical bone; 4, full thickness uni-cortical bone loss; 5, full thickness bi-cortical bone loss and/or displaced skeletal fracture. The radiographs were used to select representative bones from each group for microCT imaging. All tibia were fixed in 10% neutral buffered formalin for two days, decalcified and sectioned for histopathological evaluation. TRAP staining was performed as described previously in Liu, C., et al., 1987. […] For each tibia, the numbers of tumor-associated TRAP^+ osteoclasts were counted in the three 200×-fields with highest osteoclast frequency. A semi-quantitative three-point scoring method was used to compare treatment groups with regards to trabecular bone volume (3, >40 area; 2, >10%<40% area (normal); 1, 1-10% area; 0, none) and tumor volume (3, large; 2, moderate; 1, small; 0, none).

[2] = system: NCTC 2472 osteolytic sarcoma cells; assay: 2472 sarcoma model of secondary bone tumor: osteolysis and histology; format: in vivo, mouse; conditions: for Bone erosion score (visual, scale 0-5, microradiographs): Day 15
Experimental: (§1) 2472 sarcoma model of secondary bone tumor pain and osteolysis. Experiments were performed on adult male C3H/HeJ mice (Jackson Laboratories, Bar Harbor, Me., USA), approximately 7-8 weeks old, weighing 25-30 g at the time of tumor cell injection. An arthrotomy was performed following induction of general anesthesia with ketamine/xylazine (2:1 ratio; intramuscular (i.m.)). A needle was inserted into the intramedullary canal to create a pathway for the sarcoma cells. A depression was then made using a pneumatic dental high speed handpiece. Mice were injected with Hanks buffered saline (HBSS) (20 ul, Sigma, St. Louis, Mo., USA) or HBSS containing the 2472 sarcoma line (ATCC, Rockville, Md., USA). The injection site is sealed with a dental amalgam plug to confine the cells within the intramedullary canal and followed by irrigation with sterile water (hypotonic solution). Finally, incision closure is achieved with a wound clip. Clips are removed at day 5 as not to interfere with behavioral testing.
The extent of tumor-induced bone reorganization (osteolysis) was radiologically assessed using Faxitron analysis (Specimen Radiography System Model MX-20, Faxitron X-ray Corporation, Wheeling, Ill., and Kodak film Min-R 2000, Rochester, N.Y.). Radiographs of tumor-bearing femora were scored on a 0 to 5 scale: (0) normal bone with no signs of destruction; (1) small pits of bone destruction (1-3 in number); (2) increased pitted appearance (3-6) and loss of medullary bone; (3) loss of medullary bone and erosion of cortical bone; (4) full thickness unicortical bone loss; (5) full thickness bicortical bone loss and displaced skeletal fracture.

[3] = system: NCTC 2472 osteolytic sarcoma cells; assay: 2472 sarcoma model: pain-related behaviors; format: in vivo, mouse
Experimental: as §1
A variety of behavioral measurements were used to assess the extent of bone cancer pain.
Spontaneous nocifensive behaviors: The number of spontaneous flinches and guarding, representative of nociceptive behavior, were recorded during a 2-minute observation period. Flinches are defined as number of times the animal raises its hindpaw and guarding as the amount of time animals hold the hindpaw aloft while stationary.
Palpation-induced nocifensive behaviors: Mechanical allodynia at the knee joint was evaluated by normally non-noxious palpation of the distal femur every second for 2 minutes. Following the 2-minute palpation, the mice were placed in the observation box and their palpation-induced guarding and flinching behavior was measured for an additional 2 minutes, as discussed above.

[4] = system: NCI-H460 human lung carcinoma cells; conditions: for final tumor weights reduced by: at study termination
MRMT-1 cells = assay: Tactile (mechanical) allodynia in the MRMT-1 model; format: in vivo, rat
Experimental: Rat MRMT-1 bone metastasis model. Inoculation of rat mammary MRMT-1 adenocarcinoma cells into tibiae has been described as a bone metastasis model (Medhurst S J, et al., Pain 2002; 96:129-40. An adaptation of the model (Roudier M P, et al., Clin Exp Metastasis 2006, 23:167-75) was performed by MDS Pharma Services (Bothel, Wash.). Female Sprague-Dawley rats (Harlan Sprague Dawley, Inc., Indianapolis, Ind.) approximately 125-150 grams were acclimated one week. The animals were anesthetized with ketamine/xylazine, and the right leg area was shaved and scrubbed with chlorhexadine and 70% ethanol (SOP-SUR026). A 1-cm rostral-caudal incision was made in the skin over the top half of the tibia. […] Microradiographs were scored for tumor-induced osteolysis as follows: 0, no signs of destruction; 1, one to three small radiolucent lesions; 2, three to six lesions and loss of medullary bone; 3, loss of medullary bone and erosion of cortical bone; 4, full thickness uni-cortical bone loss; 5, full thickness bi-cortical bone loss and/or displaced skeletal fracture. […] For each tibia, the numbers of tumor-associated TRAP^+ osteoclasts were counted in the three 200×-fields with highest osteoclast frequency. […]
Pain Behavioral Assessments. […] The behavioral test for tactile allodynia, measured prior to surgery, was used for randomization of animals to the treatment groups. […]

[5] = JNJ-141 20 mpk oral twice daily
[6] = JNJ-141 60 mpk oral twice daily
[7] = 60 mg/kg oral twice daily, tumor mice
[8] = 120 mg/kg oral twice daily, sham mice
[9] = 120 mg/kg oral twice daily, tumor mice
[10] = 25 mg/kg oral twice daily, mean ± SEM
[11] = 50 mg/kg oral twice daily, mean ± SEM
[12] = 100 mg/kg oral twice daily, mean ± SEM

## CN(C)CC(=O)N1CCC(c2ccc(NC(=O)c3nc(C#N)c[nH]3)c(C3=CCCCC3)c2)CC1 [JNJ-141, 4-cyano-N-[2-(1-cyclohexen-1-yl)-4-[1-[(dimethylamino)acetyl]-4-piperidinyl]phenyl]-1H-imidazole-2-carboxamide monohydrochloride]
H460, MDA-MB-231, A375; 5 μM, monohydrochloride
  growth factor-independent (serum-dependent) proliferation in culture: did not inhibit
H460, MDA-MB-231, A375; Homo sapiens, H460, MDA-MB-231, A375, no stimulus, determined once
  IC50: > 5 µM
[1]; [5]
  Microradiograph score (five point visual score): 0.75 ± 0.17
  Osteoclast Counts (TRAP positive cells, mean of three 200x fields): 3.7 ± 0.7
  Tumor vol score (three point visual score): 1.75 ± 0.48
[1]; JNJ-141 20 or 60 mg/kg oral twice daily
  tumor-associated osteoclasts reduced by: greater than 95%
[1]; [6]
  Microradiograph score (five point visual score): 0.83 ± 0.18
  Osteoclast Counts (TRAP positive cells, mean of three 200x fields): 2.6 ± 1.5
  Trabecular bone vol score (three point visual score): 2.33 ± 0.23
  Tumor vol score (three point visual score): 1.50 ± 0.55
[2]; 60 mg/kg oral twice daily, NCTC 2472 tumor mice
  Bone erosion score (visual, scale 0-5, microradiographs): 3.5
[2]; [7]
  Macrophage Counts (CD68 positive cells): 84** Counts per high powered field
  Osteoclast Counts (TRACP positive cells): 79** Counts per high powered field
  Tumor area % marrow: 100%
[2]; 120 mg/kg oral twice daily, NCTC 2472 tumor mice
  Bone erosion score (visual, scale 0-5, microradiographs): 2.0**
[2]; 120 mg/kg oral twice daily, sham (saline) mice
  Bone erosion score (visual, scale 0-5, microradiographs): 0.25
[2]; [8]
  Macrophage Counts (CD68 positive cells): 28 Counts per high powered field
  Osteoclast Counts (TRACP positive cells): 41 Counts per high powered field
[2]; [9]
  Macrophage Counts (CD68 positive cells): 140* Counts per high powered field
  Osteoclast Counts (TRACP positive cells): 147 Counts per high powered field
  Tumor area % marrow: 90%
[3]; [7]
  PIF Day 7 (palpation-induced flinches over 2 minutes): 10.3
  PIF Day 9 (palpation-induced flinches over 2 minutes): 14.3
  PIF Day 11 (palpation-induced flinches over 2 minutes): 16.3
  PIF Day 13 (palpation-induced flinches over 2 minutes): 12.7*
  PIF Day 15 (palpation-induced flinches over 2 minutes): 11.7**
  PIG Day 15 (palpation-induced guarding time over 2 minutes): 9.1* sec
  SF Day 15 (spontaneous flinches over 2 minutes): 10*
  SG Day 15 (spontaneous guarding time over 2 minutes): 7.9 s
[3]; [8]
  PIF Day 7 (palpation-induced flinches over 2 minutes): 2.5
  PIF Day 9 (palpation-induced flinches over 2 minutes): 1.3
  PIF Day 11 (palpation-induced flinches over 2 minutes): 1.3
  PIF Day 13 (palpation-induced flinches over 2 minutes): 1.8
  PIF Day 15 (palpation-induced flinches over 2 minutes): 1.8
  PIG Day 15 (palpation-induced guarding time over 2 minutes): 0.9 s
  SF Day 15 (spontaneous flinches over 2 minutes): 1.3
  SG Day 15 (spontaneous guarding time over 2 minutes): 0.6 s
[3]; [9]
  PIF Day 7 (palpation-induced flinches over 2 minutes): 9.5
  PIF Day 9 (palpation-induced flinches over 2 minutes): 7.8**
  PIF Day 11 (palpation-induced flinches over 2 minutes): 8.5**
  PIF Day 13 (palpation-induced flinches over 2 minutes): 10.3**
  PIF Day 15 (palpation-induced flinches over 2 minutes): 9.3**
  PIG Day 15 (palpation-induced guarding time over 2 minutes): 6.4** sec
  SF Day 15 (spontaneous flinches over 2 minutes): 8.5**
  SG Day 15 (spontaneous guarding time over 2 minutes): 6.1** sec
[3]; 120 mg/kg, Day 15
  palpation induced flinching reduced by: approximately 50%
[4]; 25 mg/kg oral twice daily (qd on weekends) from day 3, mean ± SEM
  Mean final tumor weight, mg: 1,257 ± 209 mg
[4]; [10]
  Macrophage density, % area (F4/80 positive, 200X-field): 4.3 ± 0.68 % area
  Microvascular density, % area (CD31 positive): 3.73 ± 0.81 % area
[4]; 25 mg/kg oral
  final tumor weights reduced by: 21%
[4]; 50 mg/kg oral twice daily (qd on weekends) from day 3, mean ± SEM
  Mean final tumor weight, mg: 1,070 ± 121 mg
[4]; [11]
  Macrophage density, % area (F4/80 positive, 200X-field): 2.6 ± 0.57 % area
  Microvascular density, % area (CD31 positive): 2.10 ± 0.57 % area
[4]; 50 mg/kg oral
  final tumor weights reduced by: 32%
[4]; 100 mg/kg oral twice daily (qd on weekends) from day 3, mean ± SEM
  Mean final tumor weight: 870 ± 94 mg
[4]; [12]
  Macrophage density, % area (F4/80 positive, 200X-field): 0.31 ± 0.14 % area
  Microvascular density, % area (CD31 positive): 1.25 ± 0.16 % area
[4]; 100 mg/kg oral
  final tumor weights reduced by: 45%
[4]; highest dose (100 mg/kg)
  reduction in tumor vascularity (vessel density): 66%

## CN1CC[C@]23c4c5ccc(O)c4O[C@H]2[C@@H](O)C=C[C@H]3[C@H]1C5 [morphine]
MRMT-1 cells; morphine, from the 2nd time point forward
  mechanical allodynia of affected animals: reversed allodynia

## O=P(O)(O)C(O)(Cn1ccnc1)P(=O)(O)O [zoledronate, reference compound]
[1]; treated rats, day 17
  full thickness cortical bone lesions: not observed
[1]; zoledronate 0.03 mg/kg QOD sc
  tumor-associated osteoclasts reduced by: 64%
[1]; zoledronate 0.03 mpk QOD sc
  Microradiograph score (five point visual score): 0.38 ± 0.20
  Osteoclast Counts (TRAP positive cells, mean of three 200x fields): 21.0 ± 3.2
  Trabecular bone vol score (three point visual score): 2.63 ± 0.20
  Tumor vol score (three point visual score): 1.63 ± 0.20
MRMT-1 cells; zoledronate treatment
  mechanical allodynia compared to tumor-inoculated animals: decreased allodynia compared to tumor-inoculated animals but this effect did not reach statistical significance
